The supplement of paper PMC10307832

Key:
Experiment in all cases: relative viability (nuclei count vs DMSO), 5 days (fraction); higher = more cells survive
Halofuginone + Foretinib = compound: O=C(C[C@H]1NCCC[C@@H]1O)Cn1cnc2cc(Br)c(Cl)cc2c1=O (racemic) [Halofuginone] + COc1cc2c(Oc3ccc(NC(=O)C4(C(=O)Nc5ccc(F)cc5)CC4)cc3F)ccnc2cc1OCCCN1CCOCC1 [Foretinib] (partner 0.25 µM)
Summary of the method: (§1)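 Lung cancer cell lines in 1536-well plates got either a single drug or a fixed anchor-drug dose together with five library-drug doses (not always all listed) in √10 steps, by pin tool, on the day after seeding. Nuclei were counted after 5 days, and relative viability is the treated-to-vehicle ratio of nuclei counts. Values are medians of duplicate plates.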

Cediranib + Olaparib = compound: COc1cc2c(Oc3ccc4[nH]c(C)cc4c3F)ncnc2cc1OCCCN1CCCC1 [Cediranib] + O=C(c1cc(Cc2n[nH]c(=O)c3ccccc23)ccc1F)N1CCN(C(=O)C2CC2)CC1 [Olaparib] (partner 8 µM)
Summary of the method: as §1

Decitabine + Navitoclax = compound: Nc1ncn([C@H]2C[C@H](O)[C@@H](CO)O2)c(=O)n1 [Decitabine] + CC1(C)CCC(c2ccc(Cl)cc2)=C(CN2CCN(c3ccc(C(=O)NS(=O)(=O)c4ccc(N[C@H](CCN5CCOCC5)CSc5ccccc5)c(S(=O)(=O)C(F)(F)F)c4)cc3)CC2)C1 [Navitoclax] (partner 0.5 µM)
Summary of the method: as §1

Decitabine + Pictilisib = compound: Nc1ncn([C@H]2C[C@H](O)[C@@H](CO)O2)c(=O)n1 [Decitabine] + CS(=O)(=O)N1CCN(Cc2cc3nc(-c4cccc5[nH]ncc45)nc(N4CCOCC4)c3s2)CC1 [Pictilisib] (partner 1 µM)
Summary of the method: as §1

Question: With UMC-11 as the cell line, how does the relative viability (Halofuginone + Foretinib; first compound 0.001 µM) read?
Answer: 1.11

Question: What about the relative viability (Halofuginone + Foretinib; first compound 0.003162 µM) of the same cell line?
Answer: 1

Question: And the relative viability (Halofuginone + Foretinib; first compound 0.01 µM)?
Answer: 0.991

Question: And the relative viability (Halofuginone + Foretinib; first compound 0.03162 µM)?
Answer: 0.848

Question: What about the relative viability (Halofuginone + Foretinib; first compound 0.1 µM) of the same cell line?
Answer: 0.72

Question: What about the relative viability (Cediranib + Olaparib; first compound 0.04 µM) of the same cell line?
Answer: 0.373

Question: What about the relative viability (Cediranib + Olaparib; first compound 0.1265 µM) of the same cell line?
Answer: 0.335

Question: And the relative viability (Cediranib + Olaparib; first compound 0.4 µM)?
Answer: 0.371

Question: And the relative viability (Cediranib + Olaparib; first compound 1.265 µM)?
Answer: 0.388

Question: And the relative viability (Cediranib + Olaparib; first compound 4 µM)?
Answer: 0.406

Question: What about the relative viability (Decitabine + Navitoclax; first compound 0.04 µM) of the same cell line?
Answer: 0.316

Question: What about the relative viability (Decitabine + Navitoclax; first compound 0.1265 µM) of the same cell line?
Answer: 0.29

Question: What about the relative viability (Decitabine + Navitoclax; first compound 0.4 µM) of the same cell line?
Answer: 0.215

Question: What about the relative viability (Decitabine + Navitoclax; first compound 1.265 µM) of the same cell line?
Answer: 0.162

Question: What about the relative viability (Decitabine + Navitoclax; first compound 4 µM) of the same cell line?
Answer: 0.145

Question: And the relative viability (Decitabine + Pictilisib; first compound 0.04 µM)?
Answer: 0.737

Question: And the relative viability (Decitabine + Pictilisib; first compound 0.1265 µM)?
Answer: 0.794

Question: What about the relative viability (Decitabine + Pictilisib; first compound 0.4 µM) of the same cell line?
Answer: 0.315

Question: And the relative viability (Decitabine + Pictilisib; first compound 1.265 µM)?
Answer: 0.335

Question: What about the relative viability (Decitabine + Pictilisib; first compound 4 µM) of the same cell line?
Answer: 0.271
